Measured values: EP0610377B1, “TRI-SUBSTITUTED TETRAHYDROFURAN ANTIFUNGALS” (SCHERING CORPORATION, priority 1991, dated 1993)

Legend:
Format in all cases: in vivo
C. albicans C-65 = experiment: Candida systemic model in normal and compromised CF1 mice infected with C. albicans C-65, oral treatment; conditions: normal and compromised mice; result in words (text refers to Tables II and V)
Protocol: (§1) The compounds of Examples 23-26 and itraconazole, fluconazole, and saperconazole were tested for in vivo oral antifungal activity in a Candida systemic model using CF1 male mice , average weight 20 g, Harlan Sprague Dawley, Inc., Indianapolis, Ind. infected by IV injection into the tail vein of C. albicans C-43 (5 million CFUs). The drugs were dissolved in polyethylene glycol-200 (PEG-200) and tested by orally administering 50, 25 and 10 mpk of each drug 4 hours post infection and once daily for 3 more days. Oral efficacy was measured after four (4) days by percent survival and by the number of organisms remaining in the kidneys i.e., the Colony Forming Units (CFUs). The mice were sacrificed and the kidneys of individual mice were homogenized in sterile saline, diluted and spread onto Mycosel agar. Colony counts were determined after 48 hours at 37°C. For calculation of geometric means, mice that died during the experiment were considered to have 10^9 CFUs/kidneys (based on numerous previous experiments).
The compounds of Examples 23-24 and itraconazole, fluconazole, were tested for in vivo oral antifungal anctivity in a Candida systemic model using normal and compromised CF1 mice infected with C. albicans C-65 (5 million CFUs). The procedure of Example 33 was followed. The drugs were dissolved in polyethylene glycol-200 ("PEG-200) at room temperature and tested by orally administering 100, 50, 25, 10 and 1 mpk of each drug. Oral efficacy was measured by percent survival and by the number of organisms remaining in the kidneys (CFUs) after four days. […] The pharmaceutical composition of the preferred compound of formula IIb of Eample 24 in hydroxypropyl beta cyclodextrin ("HPβCD") having 7.4 hydroxypropyl groups per HPβCD (obtained from Pharmatec, Inc., Alachua, FL 32615) was prepared by admixing the appropriate amount of the compound IIa with a 40% (w/v) solution of HPβCD (4 g of HPβCD per 10 mL of purified water). Gentle heating was used to form a clear solution. For the 10 mpk dose, 12 mg of Ha was added to 6 mL of a 40% w/v solution of HPβCD. For dilutions, sterile water was added to the solution with mixing. The pharmaceutical composition of itraconazole and the Pharmatec HPβCD described above was prepared as follows. Propylene glycol (10 mL) was admixed with 0.95 mL of concentrated HCI at 40°-45°C with stirring. Itraconazole (2.5 g) was added thereto and stirring was continued until homogeneous. The mixture so formed was cooled to 20° to 30°C and admixed with a solution of 60 g of HPβCD in 40 mL of purified water to form a clear solution. The pH was adjusted to a value of 1.9-2.1 with 10N NaOH and sufficient purified water added (with mixing) to a final volume of 100 mL. For dilutions, sterile water was added to the itraconazole - HPβCD.

Candida = Candida vaginal infection in a hamster model; conditions: result in words
Aspergillus flavus [1] = experiment: Aspergillus flavus pulmonary infection model in compromised mice, oral treatment; conditions: for %SURVIVAL / %ANIMALS NEG: 18 days post infection; for %SURVIVAL: compromised CF-1 mice; for %ANIMALS NEG: negative = <10 colonies
From the text: The in vivo oral antifungal activity of the compounds of Example 23-26 were compared to those of itraconazole, fluconazole and saperconazole in an Aspergillus pulmonary infection model in mice. The procedure of David Loebenberg et al. entitled "Sch 42427, The Active Enantiomer of Antifungal agent Sch 39304: In Vitro and In Vivo Activity" Antimicrobial Agents and Chemotherapy (1992), 36 498-501 was used. The Aspergillus flavus pulmonary model was run in the following manner Male, CF-1 mice weighing 20 grams were compromised with cortisone acetate (100 mg/kg), administered subcutaneously, once daily for 3 days. In addition, to prevent bacterial disease, tetracycline HCL (300 mg/1) was added to the drinking water and given ad libitum. On day 2 of compromising, mice were infected in an inhalation chamber, first described by Piggot and Emmons in 1960 and modified by us. The chamber is a 1 liter pyrex, thick-walled flask with 8 tubular side-arms that extend into the flask. Each side-arm is a pyrex tube of 14 cm length, constricted to a 1 cm opening inside the flask. The bottom of the flask was covered with a malt extract agar medium on which a sporulating culture of A. flavus ATCC 24133 was grown for 13 days at room temperature. The top of the flask was closed with a #10 stopper through which passed a glass tube attached by rubber tubing to a 60 mL syringe. Mice were placed in each of the side arms and pushed to the bottoms so that their nares extended beyond the open end of the tube and over the agar. Cotton plugs were then inserted behind the mice to hold them in place. By pumping the 60 mL syringe twice, air was forced over the culture and produced a cloud of spores. Mice were exposed to the spore cloud for one minute. Within 15-30 minutes after exposure, a number of mice were sacrificed and lung tissue samples homogenized for culture to determine the number of inhaled conidia. Oral treatment began 24 h post-infection with doses of 5 to 250 mg of drug/kg in ethanol; vehicle (115 ml of Emulphor EL-719P, GAF, Wayne, NJ; and 5 ml of 20% w/v lactic acid per liter of water), 10:90 v/v, once daily for 4 days.
The procedure of Example 31 was used to compare the in vivo oral antifungal activity of (±)-5R/S-(cis)-4-[4-[4-[4-[[5-(2,4-difluorophenyl)-5-(1H-1,2,4-triazol-1-ylmethyl) tetrahydrofuran-3-yl]methoxy-phenyl-1-piperazinyl]phenyl]-2,4-dihydro-2[(R/S)-(1-methylpropyl)]-3H-1,2,4-triazol-3-one with (±)-2R/S-(cis)-1-[4-[[2-(2,4-difluorophenyl)-2-(1H-1,2,4-triazol-1-ylmethyl) tetrahydro-4-furanyl]methoxy]phenyl]-4-(1-methylethyl)piperazine of Example 68 of USP 5,039,676 in an Aspergillus pulmonary infection model described in Example 31. […]
The procedures of Examples 31 and 34 were used.

C. albicans C-43 = experiment: Candida systemic model in CF1 mice infected IV with C. albicans C-43, oral treatment; conditions: for %SURVIVAL: day 4 post-infection; for CFUs (GM): day 4, geometric mean of the logarithms of CFU remaining in the kidneys (dead mice counted as 10^9)
Protocol: as §1, with “The drugs were dissolved in polyethylene glycol-200 (PEG-200) and tested by orally administering 50, 25 and 10 mpk of each drug 4 hours post infection and once daily for 3 more days.” left out

Aspergillus flavus [2] = experiment: Aspergillus flavus pulmonary infection model in compromised mice, oral treatment; conditions: 33 mg/kg PO [3RX/DAY] for 4 days, 18 days post infection
[3] = 33 mg/kg PO once a day for 4 days
[4] = 66 mg/kg PO once a day for 4 days
[5] = 100 mg/kg PO once a day for 4 days

SMILES | activity against systemic candidiasis compared with itraconazole and saperconazole (C. albicans C-65) | activity against a Candida vaginal infection compared with itraconazole and saperconazole (Candida) | oral activity against Aspergillus flavus pulmonary infections compared with itraconazole, fluconazole and saperconazole (Aspergillus flavus [1]; in vivo mouse model, PO, result in words) | %SURVIVAL (C. albicans C-43; 10 MPK PO in PEG-200, 1 a day x 4 days) [%] | CFUs (GM) (C. albicans C-43; 10 MPK PO in PEG-200) | %SURVIVAL (C. albicans C-43; 25 MPK PO in PEG-200, 1 a day x 4 days) [%] | CFUs (GM) (C. albicans C-43; 25 MPK PO in PEG-200) | %SURVIVAL (C. albicans C-43; 50 MPK PO in PEG-200, 1 a day x 4 days) [%] | CFUs (GM) (C. albicans C-43; 50 MPK PO in PEG-200) | %SURVIVAL (Aspergillus flavus [2]; compromised CF-1 mice) [%] | %ANIMALS NEG (Aspergillus flavus [2]; negative = <10 colonies) [%] | %SURVIVAL (Aspergillus flavus [1]; [3]) [%] | %ANIMALS NEG (Aspergillus flavus [1]; [3]) [%] | %SURVIVAL (Aspergillus flavus [1]; [4]) [%] | %ANIMALS NEG (Aspergillus flavus [1]; [4]) [%] | %SURVIVAL (Aspergillus flavus [1]; [5]) [%] | %ANIMALS NEG (Aspergillus flavus [1]; [5]) [%]
CCC(CC)n1ncn(-c2ccc(N3CCN(c4ccc(OC[C@@H]5CO[C@@](Cn6cncn6)(c6ccc(F)cc6F)C5)cc4)CC3)cc2)c1=O [IIc] | more active | more active | more active orally | – | – | – | – | – | – | – | – | – | – | – | – | – | –
CC[C@H](C)n1ncn(-c2ccc(N3CCN(c4ccc(OC[C@H]5CO[C@](Cn6cncn6)(c6ccc(F)cc6F)C5)cc4)CC3)cc2)c1=O [Example 25, (+)-[(5S)-cis]-4-[4-[4-[4-[[5-(2,4-Difluorophenyl)-5-(1H-1,2,4-triazol-1-ylmethyl)tetrahydrofuran-3-yl]methoxy]phenyl]-1-piperazinyl]phenyl]-2,4-dihydro-2-[(1S)-(1-methylpropyl)]-3H-1,2,4-triazol-3-one] | – | – | – | 0 | 9.00 | 0 | 9.00 | 0 | 9.00 | 20 | 10 | 0 | 0 | 0 | 0 | 10 | 0
